In article PMC12016531 (Applied and Environmental Microbiology, 2025):

Legend:
[1] = tested on: L. monocytogenes ATCC19111; assay: Intracellular accumulation of UDP-MurNAc-pentapeptide; assay type: cell-based, Listeria monocytogenes; conditions: mycoidesin 1× and 2× MIC, vancomycin 10× MIC; 60 min; chloramphenicol 130 µg/mL pre-incubation 15 min; HPLC, MS
Method: (§1) Bacillus cereus CMCC63301 and L. monocytogenes ATCC19111 were grown to an OD600 of 0.3 and incubated with chloramphenicol (130 µg/mL) for 15 min. Mycoidesin (1× and 2× MIC) and vancomycin (10× MIC; positive control) were added and incubated for 60 min. The cells were collected, added to boiling water, treated for 15 min, centrifuged, and the supernatant was lyophilized. The intracellular accumulation of the peptidoglycan precursor UDP-MurNAc-pentapeptide was analyzed using HPLC (Hypersil ODS column) and identified via mass spectrometry ([27]).

[2] = tested on: Bacillus cereus CMCC63301; assay: as above; assay type: cell-based; conditions: mycoidesin 1× and 2× MIC, vancomycin 10× MIC; 60 min; chloramphenicol 130 µg/mL pre-incubation 15 min; HPLC, MS
Method: as §1

Compound: CN[C@H](CC(C)C)C(=O)N[C@H]1C(=O)N[C@@H](CC(N)=O)C(=O)N[C@H]2C(=O)N[C@H]3C(=O)N[C@H](C(=O)N[C@H](C(=O)O)c4cc(O)cc(O)c4-c4cc3ccc4O)[C@H](O)c3ccc(c(Cl)c3)Oc3cc2cc(c3O[C@@H]2O[C@H](CO)[C@@H](O)[C@H](O)[C@H]2O[C@H]2C[C@](C)(N)[C@H](O)[C@H](C)O2)Oc2ccc(cc2Cl)[C@H]1O [vancomycin, reference compound]
- Intracellular accumulation of UDP-MurNAc-pentapeptide [1]: observed
- Intracellular accumulation of UDP-MurNAc-pentapeptide [2]: observed
